{"source": "the NIST ThermoML archive (doi:10.1021/je034180e)", "conditions": "Liquid", "note": "± gives the expanded uncertainty stated by the source.", "data": [{"smiles": "CCCCCCC(=O)O", "note": "[heptanoic acid]", "values": [{"measurement": "vapor or sublimation pressure", "setting": "413.48 K", "value": "4.7 ± 0.52", "unit": "kPa"}, {"measurement": "vapor or sublimation pressure", "setting": "426.48 K", "value": "8.63 ± 0.54", "unit": "kPa"}, {"measurement": "vapor or sublimation pressure", "setting": "435.07 K", "value": "12.56 ± 0.56", "unit": "kPa"}, {"measurement": "vapor or sublimation pressure", "setting": "441.33 K", "value": "16.57 ± 0.58", "unit": "kPa"}, {"measurement": "vapor or sublimation pressure", "setting": "446.4 K", "value": "20.63 ± 0.6", "unit": "kPa"}, {"measurement": "vapor or sublimation pressure", "setting": "451 K", "value": "24.65 ± 0.62", "unit": "kPa"}, {"measurement": "vapor or sublimation pressure", "setting": "453.8 K", "value": "27.67 ± 0.63", "unit": "kPa"}]}, {"smiles": "CCC(=O)O", "note": "[propanoic acid]", "values": [{"measurement": "vapor or sublimation pressure", "setting": "361.52 K", "value": "14.56 ± 0.57", "unit": "kPa"}, {"measurement": "vapor or sublimation pressure", "setting": "368.37 K", "value": "19.58 ± 0.59", "unit": "kPa"}, {"measurement": "vapor or sublimation pressure", "setting": "378.95 K", "value": "29.65 ± 0.64", "unit": "kPa"}, {"measurement": "vapor or sublimation pressure", "setting": "386.74 K", "value": "39.73 ± 0.7", "unit": "kPa"}, {"measurement": "vapor or sublimation pressure", "setting": "392.93 K", "value": "49.79 ± 0.75", "unit": "kPa"}, {"measurement": "vapor or sublimation pressure", "setting": "398.09 K", "value": "59.86 ± 0.8", "unit": "kPa"}, {"measurement": "vapor or sublimation pressure", "setting": "402.65 K", "value": "69.92 ± 0.85", "unit": "kPa"}, {"measurement": "vapor or sublimation pressure", "setting": "406.8 K", "value": "79.99 ± 0.9", "unit": "kPa"}, {"measurement": "vapor or sublimation pressure", "setting": "410.33 K", "value": "90.07 ± 0.95", "unit": "kPa"}, {"measurement": "vapor or sublimation pressure", "setting": "411.97 K", "value": "95.1 ± 0.98", "unit": "kPa"}, {"measurement": "vapor or sublimation pressure", "setting": "413.74 K", "value": "101.21 ± 1", "unit": "kPa"}]}, {"smiles": "CCCCCC(=O)O", "note": "[hexanoic acid]", "values": [{"measurement": "vapor or sublimation pressure", "setting": "413.4 K", "value": "9.52 ± 0.54", "unit": "kPa"}, {"measurement": "vapor or sublimation pressure", "setting": "422.88 K", "value": "14.56 ± 0.57", "unit": "kPa"}, {"measurement": "vapor or sublimation pressure", "setting": "429.92 K", "value": "19.59 ± 0.59", "unit": "kPa"}, {"measurement": "vapor or sublimation pressure", "setting": "435.62 K", "value": "24.63 ± 0.62", "unit": "kPa"}, {"measurement": "vapor or sublimation pressure", "setting": "440.03 K", "value": "29.64 ± 0.64", "unit": "kPa"}, {"measurement": "vapor or sublimation pressure", "setting": "444.26 K", "value": "34.68 ± 0.67", "unit": "kPa"}, {"measurement": "vapor or sublimation pressure", "setting": "447.88 K", "value": "39.72 ± 0.69", "unit": "kPa"}, {"measurement": "vapor or sublimation pressure", "setting": "451.43 K", "value": "44.75 ± 0.72", "unit": "kPa"}]}, {"smiles": "CCCCC(=O)O", "note": "[pentanoic acid]", "values": [{"measurement": "vapor or sublimation pressure", "setting": "403.15 K", "value": "14.56 ± 0.57", "unit": "kPa"}, {"measurement": "vapor or sublimation pressure", "setting": "410.71 K", "value": "19.59 ± 0.59", "unit": "kPa"}, {"measurement": "vapor or sublimation pressure", "setting": "417.07 K", "value": "24.63 ± 0.62", "unit": "kPa"}, {"measurement": "vapor or sublimation pressure", "setting": "422.19 K", "value": "29.65 ± 0.65", "unit": "kPa"}, {"measurement": "vapor or sublimation pressure", "setting": "430.08 K", "value": "39.72 ± 0.7", "unit": "kPa"}, {"measurement": "vapor or sublimation pressure", "setting": "436.48 K", "value": "49.78 ± 0.75", "unit": "kPa"}, {"measurement": "vapor or sublimation pressure", "setting": "441.89 K", "value": "59.85 ± 0.8", "unit": "kPa"}, {"measurement": "vapor or sublimation pressure", "setting": "446.45 K", "value": "69.92 ± 0.85", "unit": "kPa"}, {"measurement": "vapor or sublimation pressure", "setting": "448.48 K", "value": "74.96 ± 0.88", "unit": "kPa"}, {"measurement": "vapor or sublimation pressure", "setting": "450.35 K", "value": "79.99 ± 0.9", "unit": "kPa"}, {"measurement": "vapor or sublimation pressure", "setting": "451.92 K", "value": "85.03 ± 0.93", "unit": "kPa"}]}, {"smiles": "CCCC(=O)O", "note": "[butanoic acid]", "values": [{"measurement": "vapor or sublimation pressure", "setting": "383.55 K", "value": "14.56 ± 0.57", "unit": "kPa"}, {"measurement": "vapor or sublimation pressure", "setting": "390.87 K", "value": "19.58 ± 0.59", "unit": "kPa"}, {"measurement": "vapor or sublimation pressure", "setting": "401.32 K", "value": "29.65 ± 0.64", "unit": "kPa"}, {"measurement": "vapor or sublimation pressure", "setting": "409 K", "value": "39.72 ± 0.7", "unit": "kPa"}, {"measurement": "vapor or sublimation pressure", "setting": "415 K", "value": "49.79 ± 0.75", "unit": "kPa"}, {"measurement": "vapor or sublimation pressure", "setting": "420.22 K", "value": "59.86 ± 0.8", "unit": "kPa"}, {"measurement": "vapor or sublimation pressure", "setting": "424.81 K", "value": "69.92 ± 0.85", "unit": "kPa"}, {"measurement": "vapor or sublimation pressure", "setting": "428.96 K", "value": "79.99 ± 0.9", "unit": "kPa"}, {"measurement": "vapor or sublimation pressure", "setting": "432.61 K", "value": "90.07 ± 0.95", "unit": "kPa"}, {"measurement": "vapor or sublimation pressure", "setting": "434.51 K", "value": "95.1 ± 0.97", "unit": "kPa"}, {"measurement": "vapor or sublimation pressure", "setting": "436.05 K", "value": "100.04 ± 1", "unit": "kPa"}]}, {"smiles": "CC(C)CC(=O)O", "note": "[3-methylbutanoic acid]", "values": [{"measurement": "vapor or sublimation pressure", "setting": "396.05 K", "value": "14.56 ± 0.57", "unit": "kPa"}, {"measurement": "vapor or sublimation pressure", "setting": "402.9 K", "value": "19.59 ± 0.59", "unit": "kPa"}, {"measurement": "vapor or sublimation pressure", "setting": "412.87 K", "value": "29.65 ± 0.64", "unit": "kPa"}, {"measurement": "vapor or sublimation pressure", "setting": "420.7 K", "value": "39.72 ± 0.7", "unit": "kPa"}, {"measurement": "vapor or sublimation pressure", "setting": "427.18 K", "value": "49.78 ± 0.75", "unit": "kPa"}, {"measurement": "vapor or sublimation pressure", "setting": "432.62 K", "value": "59.86 ± 0.8", "unit": "kPa"}, {"measurement": "vapor or sublimation pressure", "setting": "437.44 K", "value": "69.92 ± 0.85", "unit": "kPa"}, {"measurement": "vapor or sublimation pressure", "setting": "441.6 K", "value": "79.99 ± 0.9", "unit": "kPa"}, {"measurement": "vapor or sublimation pressure", "setting": "445.16 K", "value": "90.07 ± 0.95", "unit": "kPa"}, {"measurement": "vapor or sublimation pressure", "setting": "446.6 K", "value": "95.1 ± 0.98", "unit": "kPa"}, {"measurement": "vapor or sublimation pressure", "setting": "447.92 K", "value": "100.08 ± 1", "unit": "kPa"}]}, {"smiles": "CC(C)C(=O)O", "note": "[2-methylpropanoic acid]", "values": [{"measurement": "vapor or sublimation pressure", "setting": "375.21 K", "value": "14.55 ± 0.57", "unit": "kPa"}, {"measurement": "vapor or sublimation pressure", "setting": "382.14 K", "value": "19.58 ± 0.59", "unit": "kPa"}, {"measurement": "vapor or sublimation pressure", "setting": "391.77 K", "value": "29.65 ± 0.64", "unit": "kPa"}, {"measurement": "vapor or sublimation pressure", "setting": "399.43 K", "value": "39.72 ± 0.7", "unit": "kPa"}, {"measurement": "vapor or sublimation pressure", "setting": "405.44 K", "value": "49.79 ± 0.75", "unit": "kPa"}, {"measurement": "vapor or sublimation pressure", "setting": "410.75 K", "value": "59.85 ± 0.8", "unit": "kPa"}, {"measurement": "vapor or sublimation pressure", "setting": "415.51 K", "value": "69.92 ± 0.85", "unit": "kPa"}, {"measurement": "vapor or sublimation pressure", "setting": "419.77 K", "value": "79.99 ± 0.9", "unit": "kPa"}, {"measurement": "vapor or sublimation pressure", "setting": "423.36 K", "value": "90.07 ± 0.95", "unit": "kPa"}, {"measurement": "vapor or sublimation pressure", "setting": "424.86 K", "value": "95.1 ± 0.98", "unit": "kPa"}, {"measurement": "vapor or sublimation pressure", "setting": "426.16 K", "value": "100.59 ± 1", "unit": "kPa"}]}]}
